Measurements from patent US5958965A, “4-aminoethoxy indoles” (American Home Products Corporation, priority 1997, dated 1999).
Where two headings read alike, the source gives them in different places.

How the values were obtained:
dopamine D-2 receptor = target: T1, dopamine D-2 receptor (Rattus norvegicus, UniProt P61169); assay: Affinity for the dopamine D-2 receptor, 3H-spiroperidol binding in homogenized limbic brain tissue
T1 construct: homogenized limbic brain tissue is incubated with; from tissue; host or cells: limbic brain tissue, homogenized

[1] = target: T2, 5-HT1A serotonin receptor (Rattus norvegicus, UniProt P19327); assay: Displacement of [3H] 8-OHDPAT from the 5-HT1A serotonin receptor; assay type: binding
T2 sequence (P19327 1-422): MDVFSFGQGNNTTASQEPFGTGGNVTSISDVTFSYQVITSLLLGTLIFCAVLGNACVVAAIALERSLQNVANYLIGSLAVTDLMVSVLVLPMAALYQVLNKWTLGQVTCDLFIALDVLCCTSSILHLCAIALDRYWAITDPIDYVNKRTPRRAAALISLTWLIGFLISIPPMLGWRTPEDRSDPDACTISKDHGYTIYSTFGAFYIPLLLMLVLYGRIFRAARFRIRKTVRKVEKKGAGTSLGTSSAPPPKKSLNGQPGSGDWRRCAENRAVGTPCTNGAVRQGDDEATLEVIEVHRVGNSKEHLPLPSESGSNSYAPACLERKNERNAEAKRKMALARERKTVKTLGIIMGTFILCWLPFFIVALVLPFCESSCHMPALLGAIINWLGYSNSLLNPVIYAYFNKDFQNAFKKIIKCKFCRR
Description: High affinity for the serotonin 5-HT1A receptor was established by testing the claimed compound's ability to displace [^3 H] 8-OHDPAT (dipropylaminotetralin) from the 5-HT1A serotonin receptor following the procedure of Hall et al., J. Neurochem. 44, 1685 (1985). […] The anxiolytic activity of buspirone is believed to be, at least partially, due to its 5-HT1A receptor affinity (Vander Maclen et al., Eur. J. Pharmacol. 1986, 129 (1-2) 133-130).

[2] = target: T2, 5-HT1A serotonin receptor; details: standard for anxiolytic activity, comparison substance; cited from earlier work
[3] = 3H-spiroperidol, limbic brain tissue, read-out: IC50 D2 Spiper

T1 sequence (P61169 whole entry): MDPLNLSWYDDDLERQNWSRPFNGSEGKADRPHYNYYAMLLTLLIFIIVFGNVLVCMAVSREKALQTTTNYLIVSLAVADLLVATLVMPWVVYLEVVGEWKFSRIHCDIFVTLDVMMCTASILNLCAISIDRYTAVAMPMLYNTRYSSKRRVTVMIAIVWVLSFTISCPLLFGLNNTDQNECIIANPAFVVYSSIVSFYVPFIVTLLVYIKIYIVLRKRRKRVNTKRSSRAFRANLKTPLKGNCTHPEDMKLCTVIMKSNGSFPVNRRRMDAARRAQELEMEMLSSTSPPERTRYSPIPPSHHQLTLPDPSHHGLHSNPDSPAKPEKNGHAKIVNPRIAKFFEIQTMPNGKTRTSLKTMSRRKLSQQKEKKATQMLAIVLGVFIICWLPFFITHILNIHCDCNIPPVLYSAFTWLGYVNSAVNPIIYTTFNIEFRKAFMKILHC

SMILES: c1ccc(CNCCOc2cccc3[nH]ccc23)cc1 [Example 3b, N-Benzyl-[2-(1H-indol-4-yloxy)]-ethylamine]
- IC50 (dopamine D-2 receptor): 501 nM
- IC50 [1]: 36 nM

SMILES: Clc1ccc(OCCNCc2cccs2)c2c(Cl)c[nH]c12 [Example 1f, Thien-2-ylmethyl-[2-(3,7-dichloro-1H-indol-4-yloxy)-ethyl]-amine]
- IC50 (dopamine D-2 receptor; [3]): 405 nM

SMILES: Clc1ccc(OCCNCc2ccccc2)c2c(Cl)c[nH]c12 [Example 1c, Benzyl-[2-(3,7-dichloro-1H-indol-4-yloxy)-ethyl]-amine]
- IC50 (dopamine D-2 receptor; [3]): 284 nM
- IC50 [1]: 438 nM

SMILES: O=C(c1c[nH]c2cccc(OCCNCc3ccccc3)c12)C(F)(F)F [Example 3a, 1-[4-(2-Benzylamino-ethoxy)-1H-indol-3-yl]-2,2,2-trifluoro-ethanone]
- IC50 (dopamine D-2 receptor; [3]): 286 nM
- IC50 [1]: 60 nM

SMILES: O=C(c1c[nH]c2c(Cl)ccc(OCCNCc3ccccc3)c12)C(F)(F)F [Example 2c, 1-[4-(2-Benzylamino-ethoxy)-7-chloro-1H-indol-3-yl]-2,2,2-trifluoro-ethanone]
- IC50 [1]: 102 nM

SMILES: Clc1c[nH]c2cccc(OCCNCCCCc3ccccc3)c12 [Example 2a, [2-(3-Chloro-1H-indol-4-yloxy)-ethyl]-(4-phenyl-butyl)-amine]
- IC50 (dopamine D-2 receptor; [3]): 193 nM
- IC50 [1]: 0.99 nM

SMILES: c1ccc(CCCCNCCOc2cccc3[nH]ccc23)cc1 [Example 1a, [2-(1 H-Indol-4-yloxy)-ethyl]-(4-phenyl-butyl)-amine]
- IC50 (dopamine D-2 receptor): 184 nM
- IC50 [1]: 0.71 nM

SMILES: Clc1ccc(OCCNCc2ccccc2)c2cc[nH]c12 [Example 1b, Benzyl-[2-(7-chloro-1H-indol-4-yloxy)-ethyl]-amine]
- IC50 (dopamine D-2 receptor): 183 nM
- IC50 [1]: 386 nM

SMILES: O=C1CC2(CCCC2)CC(=O)N1CCCCN1CCN(c2ncccn2)CC1 [buspirone]
- affinity for the 5-HT1A serotonin receptor [2]: potent affinity
